According to PubChem BioAssay AID1033 (Sanford-Burnham Center for Chemical Genomics, 2008):
Activity calls are given as the source filed them. No rule for the calls is given here.

Target: Chaperone protein DnaK (Escherichia coli (strain K12)) (UniProt P0A6Y8)
Test: binders of DnaK substrate-binding domain, biophysical, NMR, chaperone (AID 1033)
Settings: Purified DnaK SBD, NMR ligand binding

Chain of Chaperone protein DnaK (Escherichia coli (strain K12)) (P0A6Y8 whole entry, looked up, the tested form may be a part): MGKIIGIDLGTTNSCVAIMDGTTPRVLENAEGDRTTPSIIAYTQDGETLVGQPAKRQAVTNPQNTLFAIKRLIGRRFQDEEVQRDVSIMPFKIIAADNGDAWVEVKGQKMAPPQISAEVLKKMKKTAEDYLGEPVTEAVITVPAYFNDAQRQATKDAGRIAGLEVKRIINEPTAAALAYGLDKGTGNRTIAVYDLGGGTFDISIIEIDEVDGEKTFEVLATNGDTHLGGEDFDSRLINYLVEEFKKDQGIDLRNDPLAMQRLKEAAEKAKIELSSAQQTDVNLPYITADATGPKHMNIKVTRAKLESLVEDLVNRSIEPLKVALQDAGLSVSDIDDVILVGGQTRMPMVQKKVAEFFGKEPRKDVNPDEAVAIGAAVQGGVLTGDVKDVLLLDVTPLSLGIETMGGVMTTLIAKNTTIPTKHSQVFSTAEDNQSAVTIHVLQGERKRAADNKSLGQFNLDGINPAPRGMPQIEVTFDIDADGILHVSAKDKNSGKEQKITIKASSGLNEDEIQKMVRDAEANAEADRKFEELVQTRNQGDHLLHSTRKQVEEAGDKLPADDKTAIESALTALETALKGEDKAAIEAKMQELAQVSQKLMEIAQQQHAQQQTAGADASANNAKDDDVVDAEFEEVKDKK

Row | SMILES | Kd
1 | N#CC(O[C@@H]1O[C@H](CO[C@@H]2O[C@H](CO)[C@@H](O)[C@H](O)[C@H]2O)[C@@H](O)[C@H](O)[C@H]1O)c1ccccc1 (stereo partly specified) | > 4 mM (inactive)
2 | Nc1ncnc2c1ncn2C1O[C@H](COP(=O)(O)O)[C@@H](O)[C@H]1O (stereo partly specified) | > 4 mM (inactive)
3 | N[C@@H](Cc1cc(I)c(Oc2cc(I)c(O)c(I)c2)c(I)c1)C(=O)O | > 4 mM (inactive)
4 | COc1cccc(Oc2ccc(N)cn2)c1 | > 4 mM (inactive)
5 | S=C1NC(=S)NC(c2ccc3c(c2)OCO3)N1 | > 4 mM (inactive)
6 | CC1=C(CCC(=O)O)c2cc3nc(cc4[nH]c(cc5[nH]c(cc1n2)c(C)c5C(C)O)c(C)c4C(C)O)C(C)=C3CCC(=O)O (stereo unspecified) | > 4 mM (inactive)
7 | CC1(C)Cc2nc(N3CCOCC3)c(C#N)cc2CO1 | > 4 mM (inactive)
8 | c1ccc2c(NC3=NCCS3)cccc2c1 | > 4 mM (inactive)
9 | Oc1ccccc1-c1nnco1 | > 4 mM (inactive)
10 | CCNS(=O)(=O)c1cc(Br)ccc1OC | > 4 mM (inactive)
11 | N#Cc1ccccc1CSc1ccccn1 | > 4 mM (inactive)
12 | Cc1ccc(O)c(NC(=O)c2ccco2)c1 | > 4 mM (inactive)
13 | CN1CCN(c2ncnc3nc[nH]c23)CC1 | > 4 mM (inactive)
14 | CCOC(=O)c1cnc2sccn2c1=O | > 4 mM (inactive)
15 | CCn1nnc(NC(=O)c2ccccc2Br)n1 | > 4 mM (inactive)
16 | Cc1ccccc1NC(=O)c1ccccc1 | inactive
17 | CCc1ccccc1NC(=O)c1cnccn1 | > 4 mM (inactive)
18 | Cc1onc(-c2ccc(F)cc2)c1C(=O)O | > 4 mM (inactive)
19 | Nc1cc(N)nc(SCc2ccccc2)n1 | > 4 mM (inactive)
20 | CC(CCC(=O)O)[C@H]1CCC2C3CC[C@@H]4CCCC[C@]4(C)C3CC[C@@]21C (stereo partly specified) | > 4 mM (inactive)
21 | CCOc1ccc(C(=O)c2ccc(O)c(O)c2O)cc1 | > 4 mM (inactive)

Row | SMILES | Kd
22 | CC(=O)c1cccc(NC2=NCC(C)(C)S2)c1 | > 4 mM (inactive)
23 | CCOC(=O)c1nc2ccccc2c(=O)n1N | > 4 mM (inactive)
24 | O=S(=O)(O)c1cc[n+]([O-])cc1 | > 4 mM (inactive)
25 | CC(=O)Oc1cc2c(c(C)c1OC(C)=O)CC=C1[C@@]2(C)CC[C@@]2(C)C3C[C@](C)(C(=O)O)CC[C@]3(C)CC[C@]12C (stereo partly specified) | > 4 mM (inactive)
26 | Cc1ccc(C)n1NC(=O)c1ccco1 | > 4 mM (inactive)
27 | CC(=O)c1cc(C)ccc1O | > 4 mM (inactive)
28 | COc1ccc([C@@H](C)C(=O)c2ccc(O)cc2O)cc1 | > 4 mM (inactive)
29 | Nc1cc(C(=O)O)ccc1N1CCCCCC1 | > 4 mM (inactive)
30 | CCOc1ccc(Cl)cc1S(=O)(=O)N1CCCC1 | > 4 mM (inactive)
31 | CC(=O)Nc1ccc(NC(=O)c2ccnn2C)cc1 | > 4 mM (inactive)
32 | COc1ccc2c(=O)c(OC)c(-c3ccccc3)oc2c1 | > 4 mM (inactive)
33 | CC(C)[C@@H]1CC[C@@H](C)C[C@H]1O | > 4 mM (inactive)
34 | C[n+]1cc2c3c(ccc2c2ccc4cc5c(cc4c21)OCO5)OCO3 | > 4 mM (inactive)
35 | COc1ccc2cc1Oc1ccc(cc1)C[C@H]1c3cc(c(OC)cc3CCN1C)Oc1c(OC)c(OC)cc3c1[C@H](C2)N(C)CC3 | > 4 mM (inactive)
36 | CC(=O)O[C@@H]1C[C@@]2(C)[C@H](c3ccoc3)C[C@H]3O[C@]32[C@]2(C)C(=O)C(O)=C3C(C)(C)C(=O)C=C[C@]3(C)C12 (stereo partly specified) | > 4 mM (inactive)
37 | Nc1nnc(Cc2ccc(Cl)cc2)s1 | > 4 mM (inactive)
38 | NC(=O)C1CCN(C(=O)CN2CCc3ccccc32)CC1 | > 4 mM (inactive)
39 | COc1ccc(-c2cc(=O)c3c(OC(C)=O)cc(OC(C)=O)cc3o2)cc1 | > 4 mM (inactive)
40 | OCc1ccc(-n2cncn2)cc1 | > 4 mM (inactive)
41 | COCc1cc(Cl)nc(-c2csc(C)n2)n1 | > 4 mM (inactive)
42 | CC1(C)C(=O)N(O)C(C)(C)C(=O)N1O | > 4 mM (inactive)

Row | SMILES | Kd
43 | C=CC(C1=CC(=O)C(OC)=CC1=O)c1ccccc1 (stereo unspecified) | > 4 mM (inactive)
44 | O=C(Nc1ccccc1N1CCCC1)c1cccnc1 | > 4 mM (inactive)
45 | COc1ccc(-c2cc(=O)c3cc(OC)ccc3o2)cc1 | > 4 mM (inactive)
46 | Cc1cc(=O)n(CC(C)C)c(O)c1C#N | > 4 mM (inactive)
47 | O=C1NNC(=O)C2C3c4ccccc4C(c4ccccc43)C12 (stereo unspecified) | > 4 mM (inactive)
48 | COc1ccc(Cl)c(S(=O)(=O)N2CCCC2)c1 | > 4 mM (inactive)
49 | Cc1ccc(CCNc2ccccc2)c[n+]1[O-] | > 4 mM (inactive)
50 | OC1CNCc2cc3c(cc21)OCCO3 (stereo unspecified) | > 4 mM (inactive)
51 | NC(CC(=O)O)c1ccccc1 (stereo unspecified) | > 4 mM (inactive)
52 | OC[C@H]1O[C@@](CO)(O[C@@H]2O[C@H](CO)[C@@H](O)[C@H](O)[C@H]2O)[C@@H](O[C@@H]2O[C@H](CO)[C@@H](O)[C@H](O)[C@H]2O)[C@@H]1O | > 4 mM (inactive)
53 | O=C(O)c1cccc(O)c1O | > 4 mM (inactive)
54 | COc1c2occc2c(OC)c2c(=O)cc(C)oc12 | > 4 mM (inactive)
55 | COCc1cc(=O)oc2cc(N)ccc12 | > 4 mM (inactive)
56 | CN1CCC(N2CCCC(C(N)=O)C2)CC1 (stereo unspecified) | > 4 mM (inactive)
57 | COC(=O)/C(C)=C\CC12OC(C)(C)C3CC(C=C4C(=O)c5c(OC)c6c(c(CC=C(C)C)c5OC431)OC(C)(CCC=C(C)C)C=C6)C2=O (stereo unspecified) | > 4 mM (inactive)
58 | COc1cc([C@@H]2c3cc4c(cc3[C@H](O)[C@H]3COC(=O)[C@@H]23)OCO4)cc(OC)c1OC | > 4 mM (inactive)
59 | N=Cc1c(O)n(-c2cccc(Cl)c2)c(=O)[nH]c1=O | > 4 mM (inactive)
60 | NC(=O)CSCc1ccc(Br)cc1 | > 4 mM (inactive)
61 | C[n+]1ccc(C(=O)[O-])cc1 | > 4 mM (inactive)
62 | CC(=O)c1ccc(NC(=S)N2CCC(O)CC2)cc1 | > 4 mM (inactive)
63 | COc1ncnc(N)c1[N+](=O)[O-] | > 4 mM (inactive)

Row | SMILES | Kd
64 | c1ccc(Cn2cccc2)nc1 | > 4 mM (inactive)
65 | O=C(O)CNCC(O)Cn1c2ccccc2c2ccccc21 (stereo unspecified) | > 4 mM (inactive)
66 | Cn1c(C(=O)O)ccc1S(N)(=O)=O | > 4 mM (inactive)
67 | CNC(Cc1c[nH]c2ccccc12)C(=O)O (stereo unspecified) | > 4 mM (inactive)
68 | COc1cccc(/C=N/N=C2/NC(=O)CS2)c1 | > 4 mM (inactive)
69 | CCCCCCCCCCCCCc1ccco1 | > 4 mM (inactive)
70 | O=C(Nn1cnnc1)c1cc2c(s1)CCCCC2 | > 4 mM (inactive)
71 | NC(=O)c1ccc(N2C(=O)CCC2=O)cc1Cl | > 4 mM (inactive)
72 | COC(=O)Nc1c(C)n(C)n(-c2ccccc2)c1=O | > 4 mM (inactive)
73 | O=C(NC1=NCCS1)c1ccc(Cl)s1 | > 4 mM (inactive)
74 | Cn1c(=O)c2[nH]cnc2n(-c2ccccc2)c1=O | > 4 mM (inactive)
75 | COc1c(O)cc2oc3cc(O)c(CC=C(C)C)c(O)c3c(=O)c2c1CC=C(C)C | > 4 mM (inactive)
76 | N#Cc1nc(N2CCCCC2)nc(N2CCOCC2)n1 | > 4 mM (inactive)
77 | CC1=C(C(N)=O)C(c2cccs2)C(C(N)=O)=C(C)N1 | > 4 mM (inactive)
78 | CC(=O)c1cccc(NC(=O)C=C(C)C)c1 | > 4 mM (inactive)
79 | COc1c(C(C)C)oc2cc3oc(=O)ccc3cc12 | > 4 mM (inactive)
80 | CC(=O)NCC1OCCc2ccccc21 (stereo unspecified) | > 4 mM (inactive)
81 | Oc1ccc(C(=S)N2CCCCC2)cc1Cl | > 4 mM (inactive)
